Assay results: the NIST ThermoML archive (doi:10.1016/j.jct.2017.06.001)

Test: xn = mol fraction of the nth substance listed
Settings: 100 kPa, Liquid; for speed of sound: Frequency=5 MHz, Pulse-echo method; for mass density: Vibrating tube method

OCCCCCO [1,5-pentanediol] + O
Settings	mass density [kg/m3]	speed of sound [m/s]
313.15 K, x1 = 0.005	991.7	–
313.15 K, x1 = 0.0101	991.52	–
313.15 K, x1 = 0.0196	991.54	–
313.15 K, x1 = 0.0251	991.82	–
313.15 K, x1 = 0.0304	992.13	–
313.15 K, x1 = 0.05	992.81	–
313.15 K, x1 = 0.0769	993.24	–
313.15 K, x1 = 0.1002	993.63	–
313.15 K, x1 = 0.1124	–	1653.6
313.15 K, x1 = 0.1158	–	1654.3
313.15 K, x1 = 0.1193	–	1654.9
313.15 K, x1 = 0.1244	–	1655.7
313.15 K, x1 = 0.1287	–	1656.2
313.15 K, x1 = 0.1321	–	1656.6
313.15 K, x1 = 0.1361	–	1656.9
313.15 K, x1 = 0.1413	–	1657.3
313.15 K, x1 = 0.1438	993.61	–
313.15 K, x1 = 0.1453	–	1657.5
313.15 K, x1 = 0.1493	–	1657.7
313.15 K, x1 = 0.1538	–	1657.8
313.15 K, x1 = 0.1569	–	1657.8
313.15 K, x1 = 0.1592	–	1657.9
313.15 K, x1 = 0.1624	–	1657.9
313.15 K, x1 = 0.1645	–	1657.9
313.15 K, x1 = 0.1677	–	1657.8
313.15 K, x1 = 0.1703	–	1657.8
313.15 K, x1 = 0.174	–	1657.7
313.15 K, x1 = 0.1785	–	1657.6
313.15 K, x1 = 0.1796	–	1657.5
313.15 K, x1 = 0.1845	993.02	–
313.15 K, x1 = 0.1854	–	1657.3
313.15 K, x1 = 0.1882	–	1657.2
313.15 K, x1 = 0.1986	–	1656.6
313.15 K, x1 = 0.2089	–	1656
313.15 K, x1 = 0.2219	–	1655
313.15 K, x1 = 0.2336	–	1654.1
313.15 K, x1 = 0.2458	–	1653
313.15 K, x1 = 0.2503	991.87	–
313.15 K, x1 = 0.2586	–	1651.8
313.15 K, x1 = 0.2742	–	1650.3
313.15 K, x1 = 0.2871	–	1649
313.15 K, x1 = 0.3	990.74	–
313.15 K, x1 = 0.3037	–	1647.3
313.15 K, x1 = 0.3173	–	1645.8
313.15 K, x1 = 0.3343	989.99	–
313.15 K, x1 = 0.3466	–	1642.6
313.15 K, x1 = 0.366	–	1640.3
313.15 K, x1 = 0.3864	–	1637.9
313.15 K, x1 = 0.401	–	1636.1
313.15 K, x1 = 0.4171	988.35	–
313.15 K, x1 = 0.4198	–	1633.7
313.15 K, x1 = 0.4339	–	1631.8
313.15 K, x1 = 0.4516	–	1629.5
313.15 K, x1 = 0.454	987.5	–
313.15 K, x1 = 0.4639	–	1627.8
313.15 K, x1 = 0.4723	–	1626.7
313.15 K, x1 = 0.4915	–	1624
313.15 K, x1 = 0.5003	986.6	–
313.15 K, x1 = 0.5111	–	1621.3
313.15 K, x1 = 0.5315	–	1618.4
313.15 K, x1 = 0.5362	985.8	–
313.15 K, x1 = 0.5529	–	1615.4
313.15 K, x1 = 0.5804	–	1611.5
313.15 K, x1 = 0.602	–	1608.5
313.15 K, x1 = 0.6163	–	1606.5
313.15 K, x1 = 0.6177	984.4	–
313.15 K, x1 = 0.6349	–	1604
313.15 K, x1 = 0.6478	983.9	–
313.15 K, x1 = 0.6533	–	1601.5
313.15 K, x1 = 0.6749	–	1598.6
313.15 K, x1 = 0.6932	–	1596.3
313.15 K, x1 = 0.7025	983	–
313.15 K, x1 = 0.7095	–	1594.2
313.15 K, x1 = 0.7237	–	1592.4
313.15 K, x1 = 0.7448	–	1589.9
313.15 K, x1 = 0.7504	982.3	–
313.15 K, x1 = 0.7666	–	1587.3
313.15 K, x1 = 0.7927	981.6	–
313.15 K, x1 = 0.794	–	1584.1
313.15 K, x1 = 0.8188	–	1581.3
313.15 K, x1 = 0.8485	–	1578
313.15 K, x1 = 0.8605	980.4	–
313.15 K, x1 = 0.875	–	1575.1
313.15 K, x1 = 0.9004	979.7	–
313.15 K, x1 = 0.9027	–	1572.1
313.15 K, x1 = 0.9251	–	1569.5
313.15 K, x1 = 0.9471	–	1566.9
313.15 K, x1 = 0.9496	978.8	–
313.15 K, x1 = 0.9652	–	1564.7
313.15 K, x1 = 0.9777	–	1563.1
313.15 K, x1 = 0.9877	–	1561.8
313.15 K, x1 = 0.9953	–	1560.8
313.15 K, x1 = 1	977.8	1560.2
318.15 K, x1 = 0.0005	–	1538
318.15 K, x1 = 0.0015	–	1540.6
318.15 K, x1 = 0.0027	–	1543.4
318.15 K, x1 = 0.0039	–	1546.4
318.15 K, x1 = 0.0049	–	1548.8
318.15 K, x1 = 0.0058	–	1550.9
318.15 K, x1 = 0.0069	–	1553.4
318.15 K, x1 = 0.008	–	1556
318.15 K, x1 = 0.0092	–	1558.5
318.15 K, x1 = 0.0106	–	1561.6
318.15 K, x1 = 0.0116	–	1563.7
318.15 K, x1 = 0.0129	–	1566.4
318.15 K, x1 = 0.0141	–	1568.7
318.15 K, x1 = 0.0154	–	1571.2
318.15 K, x1 = 0.0168	–	1573.9
318.15 K, x1 = 0.0184	–	1576.8
318.15 K, x1 = 0.0196	–	1578.9
318.15 K, x1 = 0.0215	–	1582.2
318.15 K, x1 = 0.0231	–	1584.8
318.15 K, x1 = 0.0246	–	1587.2
318.15 K, x1 = 0.0263	–	1589.8
318.15 K, x1 = 0.0283	–	1592.8
318.15 K, x1 = 0.0298	–	1594.9
318.15 K, x1 = 0.0316	–	1597.5
318.15 K, x1 = 0.0337	–	1600.2
318.15 K, x1 = 0.0357	–	1602.8
318.15 K, x1 = 0.0378	–	1605.4
318.15 K, x1 = 0.0403	–	1608.2
318.15 K, x1 = 0.043	–	1611.2
318.15 K, x1 = 0.0456	–	1613.9
318.15 K, x1 = 0.0487	–	1616.8
318.15 K, x1 = 0.0503	–	1618.2
318.15 K, x1 = 0.0516	–	1619.4
318.15 K, x1 = 0.0548	–	1622.1
318.15 K, x1 = 0.0584	–	1624.9
318.15 K, x1 = 0.0657	–	1629.8
318.15 K, x1 = 0.0682	–	1631.3
318.15 K, x1 = 0.072	–	1633.3
318.15 K, x1 = 0.0763	–	1635.4
318.15 K, x1 = 0.0796	–	1636.9
318.15 K, x1 = 0.0848	–	1639
318.15 K, x1 = 0.0893	–	1640.5
318.15 K, x1 = 0.0963	–	1642.5
318.15 K, x1 = 0.1022	–	1643.9
318.15 K, x1 = 0.1063	–	1644.7
318.15 K, x1 = 0.1107	–	1645.4
318.15 K, x1 = 0.1147	–	1646
318.15 K, x1 = 0.1186	–	1646.4
318.15 K, x1 = 0.1227	–	1646.8
318.15 K, x1 = 0.1267	–	1647.1
318.15 K, x1 = 0.1324	–	1647.4
318.15 K, x1 = 0.138	–	1647.6
318.15 K, x1 = 0.1421	–	1647.7
318.15 K, x1 = 0.1467	–	1647.7
318.15 K, x1 = 0.151	–	1647.7
318.15 K, x1 = 0.1559	–	1647.6
318.15 K, x1 = 0.1604	–	1647.4
318.15 K, x1 = 0.1642	–	1647.3
318.15 K, x1 = 0.1668	–	1647.1
318.15 K, x1 = 0.17	–	1647
318.15 K, x1 = 0.1746	–	1646.7
318.15 K, x1 = 0.1759	–	1646.6
318.15 K, x1 = 0.1805	–	1646.3
318.15 K, x1 = 0.1834	–	1646.1
